According to publication PMC12133982, “Predominant T-cell epitopes of SARS-CoV-2 restricted by multiple prevalent HLA-B and HLA-C allotypes in Northeast Asia” (Frontiers in Immunology, 2025):
Peptide text beside a SMILES is read from it.

Columns and labels:
HLA-B4601 = HLA-B4601 (Homo sapiens, UniProt P01889, A329T/A93R/C349S/D201E/E100V/E187L/E204Q/E69M/E70A/I90K/K202T/N87E/R155S/R180W/S121R/S35A/S48A/V306I/V36M/Y140S); assay: Competitive peptide binding assay, CIR-B4601; settings: for IC50: HMy2.CIR-B4601 cells, reference Cy5-[…], class from inhibition at 5 and 15 μM, flow cytometry MFI, read-out: Binding affinity with HLA-B4601
Protocol: (§1) Then, competitive peptide binding assays were performed.

HLA-B1501 = HLA-B1501 (Homo sapiens, UniProt P01889, A329T/A93T/A95T/C349S/D201E/D98Y/E187L/E204Q/E69M/E70A/K202T/N87E/Q94N/R155S/R180W/S121R/S35A/S48A/V306I/V36M/Y140S/Y91S); assay: Competitive peptide binding assay, CIR-B1501; settings: HMy2.CIR-B1501 cells, reference Cy5-[…], class from inhibition at 5 and 15 μM, flow cytometry MFI; read-out: Binding affinity with HLA-B1501
Protocol: as §1

HLA-B1301 = HLA-B1301 (Homo sapiens, UniProt P01889, A65T/A93T/A95T/D138N/D201E/D98Y/E176V/E204Q/E69M/E70A/G107R/K202T/L105A/L119I/N104T/N87E/Q94N/R106L/R155S/R169L/R180L/S101N/S121R/S35A/S48T/T118I/V127L/V36M/Y140L/Y91S); assay: Competitive peptide binding assay, CIR-B1301; settings: HMy2.CIR-B1301 cells, reference Cy5-[…], class from inhibition at 5 and 15 μM, flow cytometry MFI; read-out: Binding affinity with HLA-B1301
Protocol: as §1

HLA-B5801 = HLA-B5801 (Homo sapiens, UniProt P01889, A329T/C349S/D201E/D98Y/E176V/E187L/E204Q/E69T/G107R/I218V/I90N/K202T/L105A/L119I/N104I/N87E/Q89R/Q94S/R106L/R155S/R180L/R86G/S101N/S121R/S35A/S48A/T118I/V127L/V306I/V36M/Y140S/Y91M); assay: Competitive peptide binding assay, CIR-B5801; settings: HMy2.CIR-B5801 cells, reference Cy5-[…], class from inhibition at 5 and 15 μM, flow cytometry MFI; read-out: Binding affinity with HLA-B5801
Protocol: as §1

HLA-B0702 = target: T1, HLA-B0702 (Homo sapiens, UniProt P01889); assay: Competitive peptide binding assay, CIR-B0702; settings: HMy2.CIR-B0702 cells, reference Cy5-[…], class from inhibition at 5 and 15 μM, flow cytometry MFI
T1 construct: expressed in transfected cells; host or cells: HMy2.CIR
Protocol: as §1

HLA-B1502 = HLA-B1502 (Homo sapiens, UniProt P01889, A329T/A93T/A95T/C349S/D201E/D98Y/E187L/E204Q/E69M/E70A/H137Y/K202T/L119I/Q94N/R155S/R180L/S121R/S35A/S48A/T118I/V306I/V36M/Y140S/Y91S); assay: Competitive peptide binding assay, CIR-B1502; settings: HMy2.CIR-B1502 cells, reference Cy5-[…], class from inhibition at 5 and 15 μM, flow cytometry MFI; read-out: Binding affinity with HLA-B1502
Protocol: as §1

HLA-B3501 = HLA-B3501 (Homo sapiens, UniProt P01889, A329T/A93T/A95T/C349S/D201E/D98Y/E176V/E187L/E204Q/E69T/I218V/K202T/L119I/Q94N/R155S/R180L/S121R/S35A/S48A/T118I/V127L/V306I/V36M/Y140S/Y91F); assay: Competitive peptide binding assay, CIR-B3501; settings: HMy2.CIR-B3501 cells, reference Cy5-[…], class from inhibition at 5 and 15 μM, flow cytometry MFI; read-out: Binding affinity with HLA-B3501
Protocol: as §1

HLA-B1302 = HLA-B1302 (Homo sapiens, UniProt P01889, A65T/A93T/A95T/D138N/D201E/D98Y/E176V/E204Q/E69M/E70A/G107R/K202T/L105A/L119W/N104T/N87E/Q94N/R106L/R155S/R169L/R180L/S101N/S121T/S35A/S48T/V127L/V36M/Y140L/Y91S); assay: Competitive peptide binding assay, CIR-B1302; settings: HMy2.CIR-B1302 cells, reference Cy5-MMWYWGPSL, class from inhibition at 5 and 15 μM, flow cytometry MFI; read-out: Binding affinity with HLA-B1302
Protocol: as §1

HLA-B4001 = HLA-B4001 (Homo sapiens, UniProt P01889, A65T/A93T/A95T/D138N/D98Y/E176V/E69K/N87E/Q56L/Q94N/R180L/S121R/S35A/S48T/T167S/V36M/W171L/Y33H/Y91S); assay: Competitive peptide binding assay, CIR-B4001; settings: HMy2.CIR-B4001 cells, reference Cy5-[…], class from inhibition at 5 and 15 μM, flow cytometry MFI; read-out: Binding affinity with HLA-B4001
Protocol: as §1

HLA-B4403 = HLA-B4403 (Homo sapiens, UniProt P01889, A223V/A65T/A93T/A95T/D201E/D98Y/E176V/E187L/E204Q/E69K/G107R/H137Y/K202T/L105A/L119I/N104T/N87E/Q56L/Q94N/R106L/R155S/R180L/S101N/S121R/S35A/S48T/T118I/V36M/W191S/Y140D/Y91S); assay: Competitive peptide binding assay, CIR-B4403; settings: HMy2.CIR-B4403 cells, reference Cy5-CYMEAVAL, class from inhibition at 5 and 15 μM, flow cytometry MFI; read-out: Binding affinity with HLA-B4403
Protocol: as §1

Question: Which IC50 (HLA-B4601) does the source give for `CC(C)C[C@H](NC(=O)[C@H](CC(=O)O)NC(=O)[C@H](C)NC(=O)[C@H](C)NC(=O)[C@@H]1CCCN1C(=O)[C@@H](N)CC(C)C)C(=O)N[C@@H](CC(=O)O)C(=O)N[C@@H](CC(=O)O)C(=O)N[C@@H](Cc1ccccc1)C(=O)O` [Epitope Y180] (H-LPAADLDDF-OH; N-terminus and C-terminus assumed) here?
Answer: The IC50 was greater than 15 µM.

Question: What about the IC50 (HLA-B1501) of the same compound?
Answer: Its IC50 is 5 to 15 µM.

Question: What about the IC50 (HLA-B1301) of the same compound?
Answer: Its IC50 is greater than 15 µM.

Question: And the IC50 (HLA-B5801)?
Answer: Its IC50 is greater than 15 µM.

Question: What about the IC50 (HLA-B0702) of the same compound?
Answer: The IC50 was greater than 15 µM.

Question: And the IC50 (HLA-B1502)?
Answer: The IC50 was greater than 15 µM.

Question: Which IC50 (HLA-B4601) does the source give for `CSCC[C@H](NC(=O)[C@H](C)NC(=O)[C@@H](N)Cc1ccccc1)C(=O)N[C@@H](CCC(N)=O)C(=O)N[C@@H](CCSC)C(=O)N[C@@H](C)C(=O)N[C@@H](Cc1ccc(O)cc1)C(=O)N[C@@H](CCCNC(=N)N)C(=O)N[C@@H](Cc1ccccc1)C(=O)O` [Epitope Y189] here?
Answer: Its IC50 is less than 5 µM.

Question: What about the inhibition at 5 µM (HLA-B4601; read-out: Inhibition % of Cy5-reference peptide binding, CIR-B4601, 5μM peptide) of the same compound?
Answer: Its inhibition at 5 µM is 74.8%.

Question: What about the inhibition at 15 µM (HLA-B4601; read-out: Inhibition % of Cy5-reference peptide binding, CIR-B4601, 15μM peptide) of the same compound?
Answer: The inhibition at 15 µM was 92.9%.

Question: What about the IC50 (HLA-B1501) of the same compound?
Answer: Its IC50 is greater than 15 µM.

Question: And the IC50 (HLA-B1301)?
Answer: Its IC50 is 5 to 15 µM.

Question: What about the IC50 (HLA-B3501) of the same compound?
Answer: The IC50 was 5 to 15 µM.

Question: What about the IC50 (HLA-B5801) of the same compound?
Answer: Its IC50 is greater than 15 µM.

Question: What about the IC50 (HLA-B0702) of the same compound?
Answer: Its IC50 is less than 5 µM.

Question: And the IC50 (HLA-B1502)?
Answer: Its IC50 is greater than 15 µM.

Question: `CC(C)C[C@H](NC(=O)[C@H](CC(C)C)NC(=O)[C@@H](NC(=O)[C@@H](NC(=O)[C@@H](NC(=O)[C@H](CCC(N)=O)NC(=O)[C@H](CCC(N)=O)NC(=O)[C@H](CCCCN)NC(=O)[C@@H](N)CCCCN)[C@@H](C)O)C(C)C)[C@@H](C)O)C(=O)O` [Epitope Y196] (H-KKQQTVTLL-OH; N-terminus and C-terminus assumed) was tested. Which IC50 (HLA-B4601) did it give?
Answer: Its IC50 is less than 5 µM.

Question: And the IC50 (HLA-B1501)?
Answer: The IC50 was greater than 15 µM.

Question: What about the IC50 (HLA-B1302) of the same compound?
Answer: The IC50 was 5 to 15 µM.

Question: And the IC50 (HLA-B1301)?
Answer: Its IC50 is greater than 15 µM.

Question: What about the IC50 (HLA-B3501) of the same compound?
Answer: Its IC50 is greater than 15 µM.

Question: And the IC50 (HLA-B5801)?
Answer: The IC50 was greater than 15 µM.

Question: What about the IC50 (HLA-B0702) of the same compound?
Answer: The IC50 was greater than 15 µM.

Question: Which results are given for `CC(C)C[C@H](NC(=O)[C@H](CC(C)C)NC(=O)[C@H](C)NC(=O)[C@H](CCC(N)=O)NC(=O)[C@H](CCCNC(=N)N)NC(=O)[C@@H](NC(=O)[C@H](CCCNC(=N)N)NC(=O)[C@H](CCC(=O)O)NC(=O)CN)C(C)C)C(=O)O` [Epitope Y202] (H-GERVRQALL-OH; N-terminus and C-terminus assumed)?
Answer: IC50 (HLA-B4601): 5 to 15 µM; IC50 (HLA-B1501): > 15 µM; IC50 (HLA-B1302): > 15 µM; IC50 (HLA-B1301): > 15 µM; IC50 (HLA-B3501): > 15 µM; IC50 (HLA-B5801): > 15 µM; IC50 (HLA-B0702): > 15 µM; IC50 (HLA-B1502): > 15 µM

Question: Which results are given for `CC[C@H](C)[C@H](NC(=O)[C@@H](NC(=O)[C@H](CC(C)C)NC(=O)[C@H](CCC(=O)O)NC(=O)[C@H](CO)NC(=O)[C@H](CCC(=O)O)NC(=O)[C@@H](N)CC(C)C)C(C)C)C(=O)NCC(=O)N[C@@H](C)C(=O)N[C@H](C(=O)O)C(C)C` [Epitope Y211] (H-LESELVIGAV-OH; N-terminus and C-terminus assumed)?
Answer: IC50 (HLA-B4601): > 15 µM; IC50 (HLA-B1501): 5 to 15 µM; IC50 (HLA-B1302): > 15 µM; IC50 (HLA-B1301): > 15 µM; IC50 (HLA-B4001): 5 to 15 µM; IC50 (HLA-B3501): > 15 µM; IC50 (HLA-B5801): > 15 µM; IC50 (HLA-B0702): > 15 µM; IC50 (HLA-B1502): > 15 µM

Question: What does the source list for `CC[C@H](C)[C@H](N)C(=O)N[C@@H](C)C(=O)N[C@@H](CCSC)C(=O)N[C@@H](C)C(=O)N[C@@H](CS)C(=O)N[C@@H](CC(C)C)C(=O)N[C@H](C(=O)NCC(=O)N[C@@H](CC(C)C)C(=O)O)C(C)C` [Epitope Y253] (H-IAMACLVGL-OH; N-terminus and C-terminus assumed)?
Answer: IC50 (HLA-B4601): < 5 µM; IC50 (HLA-B1501): > 15 µM; IC50 (HLA-B4403): 5 to 15 µM; IC50 (HLA-B1302): 5 to 15 µM; IC50 (HLA-B1301): 5 to 15 µM; IC50 (HLA-B3501): > 15 µM; IC50 (HLA-B5801): > 15 µM; IC50 (HLA-B1502): > 15 µM
